Results from patent EP0378881B1, “Synthetic peptides and their use as universal carriers for the preparation of immunogenic conjugates suitable for the development of synthetic vaccines” ([…] S.p.A., priority 1989, dated 1993).
Entries after “also recorded” stand apart in the source; their conditions may differ. Like-named read-outs stand apart in the source and are kept apart here.

How the values were obtained:
[1] = system: Mononucleated cells of peripheral blood (PBMC); assay type: cell-based, human
[2] = system: T-cellular clones which are specific for TT=2; assay type: cell-based, human
[3] = system: T-cellular clones which are specific for TT=2; assay type: cell-based, human; remark: listed apart in the source
[4] = system: anti-CSP antibody response; conditions: cited from earlier work

## Gln-Tyr-Ile-Lys-Ala-Asn-Ser-Lys-Phe-Ile-Gly-Ile-Thr-Glu (QYIKANSKFIGITE; printed: Gln-Tyr-Ile-Lys-Ala-Asn-Ser-Lys-Phe-Ile-Gly-Ile-Thr-Glu) [TT=2, synthetic peptide corresponding to TT segment 830-843]
[1]
  TT=2-specific cells as share of all the T cells which were specific for the Tetanus Toxoid (TT): ≤ 5%
[2]
  DR alleles in association with which the clone recognizes TT=2: DR1, 2, 4w4 and 7; also recorded: DR5JVM and 6
  DR alleles that can be used as restriction molecules: DR1-9, 4 x 4, 5JVM and DRw52b
  concentrations of the peptide at which all the clones react (dose-response plot): 0.1 to 2 µM
  isotype of the II-class molecules recognized by the clones: restricted DRs
  proliferation of the isolated clones in response to the antigen: proliferate responsively
[3]
  minimum antigenic sequence (epitope) recognized by the T-cells: single 831-842 epitope

## H-(Asn-Ala-Asn-Pro)n
[4]; CBA/ca mice
  anti-CSP antibody response: not able to induce
[4]; DBA/2 mice
  anti-CSP antibody response: not able to induce

## NANP₄₀: polymer (Asn-Ala-Asn-Pro)₄₀ obtained by polymerizing the activated monomer
[4]; C57/8L/6 mice
  responder status of the mouse strain: natural responders
[4]; CB4/ca mice
  responder status of the mouse strain: non-responders
[4]; DBA/2 mice
  responder status of the mouse strain: non-responders
